Measured values from patent US12612408B2, “Pyrazolone-fused pyrimidine compound, preparation method for same and applications thereof” (SHANGHAI PHARMACEUTICALS HOLDING CO., LTD., priority 2019, dated 2026).
Where two headings read alike, the source gives them in different places.

Experiments:
WEE1 kinase = target: T1, WEE1 kinase (Homo sapiens, UniProt P30291); experiment: Inhibitory effect of compound on WEE1 kinase in vitro (ELISA); type: biochemical; conditions: ATP concentration of Km
T1 construct: purchased CarnaBiosciences, Inc. 05-177
T1 sequence (P30291 whole entry): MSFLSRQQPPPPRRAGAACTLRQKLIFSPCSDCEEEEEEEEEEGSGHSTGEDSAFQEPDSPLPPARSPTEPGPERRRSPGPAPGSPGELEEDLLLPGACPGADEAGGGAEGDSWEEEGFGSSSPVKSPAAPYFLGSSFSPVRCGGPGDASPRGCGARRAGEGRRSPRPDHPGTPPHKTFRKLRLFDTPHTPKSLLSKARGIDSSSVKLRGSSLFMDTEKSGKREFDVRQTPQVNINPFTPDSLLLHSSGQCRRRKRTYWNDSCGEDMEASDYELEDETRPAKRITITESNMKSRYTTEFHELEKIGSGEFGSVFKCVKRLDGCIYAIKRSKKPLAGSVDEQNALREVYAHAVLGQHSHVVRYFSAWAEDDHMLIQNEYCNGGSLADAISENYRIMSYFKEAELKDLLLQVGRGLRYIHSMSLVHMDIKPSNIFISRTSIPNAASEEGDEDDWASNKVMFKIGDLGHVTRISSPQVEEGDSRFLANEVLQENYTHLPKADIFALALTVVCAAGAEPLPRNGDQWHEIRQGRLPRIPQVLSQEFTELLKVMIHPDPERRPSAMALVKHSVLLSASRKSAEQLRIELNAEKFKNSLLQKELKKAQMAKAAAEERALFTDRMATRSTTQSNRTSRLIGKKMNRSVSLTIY
Method: The tested compounds were screened on WEE1 kinase with ATP concentration of Km by ELISA. Compounds were screened on WEE1 kinase to evaluate the kinase inhibitory activity of the tested compounds. In the detection process, the initial concentration of the tested compounds was all selected as 100 nM, and each compound was selected with 6 gradient dilution concentrations, the gradient dilution ratio was 4-fold, and two replicate wells were detected for each concentration, MK1775 was used as the standard control.
WEE1, purchased from CarnaBiosciences, Inc., Item No. 05-177; dimethyl sulfoxide, purchased from Sigma-Aldrich, Item No. D8418; ATP, purchased from Sigma-Aldrich, Item No. A7699; DTT solution, purchased from Sigma-Aldrich, Item No. 43816; protein tyrosine kinase (PTK) substrate (poly-Glu-Tyr), purchased from Sigma-Aldrich, Item No. P4476; P-Tyr (PY99), purchased from Santa Cruz, Item No. sc-7020; Anti-mouse IgG HRP-linked Antibody, purchased from Santa Cruz, Item No. 7076S; TMB liquid Substrate System, purchased from Sigma-Aldrich, Item No. T0440; Costar Stripwell Microplate No Lid 1×8 Flat Bottom, Certified High Binding, purchased from Sigma-Aldrich, Item No. 42592; 96-well compound plate, purchased from Thermo Scientific, Item No. 267245.
• 1. Coating substrate: 1) An appropriate volume of substrate storage solution protein tyrosine kinase (PTK) substrate (poly-Glu-Tyr) was taken, diluted 10 times with PBS, and the concentration was diluted from […]. The mixture was added to a high adsorption 96-well plate at 125 μL per well. The plate was placed in an incubator at 37° C. for overnight coating. 2) After 24 hours, the 96-well plate was taken out, the liquid in the 96-well plate was poured out, cleaned with washing buffer for 3 times, and the incubator at 37° C. was inverted and dried for 2 hours. • 2. Compound preparation and transfer: 1) compound dilution: 10 mM of the test compound storage solution was taken, the compound in 96-well compound plate was diluted with DMSO in multiple steps to obtain the initial concentration of 100× compound as the first concentration, and then DMSO was used for 4-fold gradient dilution, for a total of 6 concentrations; after that, 2 μL of the gradient dilution solution was added to 48 μL of 1× reaction buffer respectively to prepare 4× compound; 2) 4× compounds were transferred: 10 μL of 4× compounds from the 96-well compound plate configured in the previous step were transferred into the dried high adsorption 96-well plate; 10 μL of the following liquids were added to the compound-free control wells and ATP-control wells: 2 μL of DMSO was added to 48 μL of 1× reaction buffer. • 3. Enzyme reaction stage: 1) WEE1 kinase and ATP were prepared into 2× enzyme solution and 4×ATP solution respectively with 1× reaction buffer. In this screening, the final concentration of WEE1 kinase was: 0.15 ng/μL and the final concentration of ATP was: […]; 2) 20 μL of enzyme solution of 2 was added to the high adsorption 96-well plate; 3) 10 μL of 4×ATP solution was added to the high adsorption 96-well plate and 10 μL of 1× reaction buffer was added to the ATP-control group; 4) the plate was placed in HERAEUS Multifuge X1R centrifuge at 2000 rpm for 20 s and then placed at room temperature and reacted for 60 min. • 4. Reaction termination stage: 1) the reaction mixture in the plate was poured out, 200 μL of washing buffer was added to each well, and washed for 5 times; the primary antibody P-Tyr (PY99) (dilution ratio 1:2000) was added, 100 μL per well, at room temperature for 30 min. 2) The primary antibody in the plate was poured out, 200 μL of washing buffer was added to each well, and washed for 5 times; the second antibody Anti-mouse IgG HRP-linked Antibody (dilution ratio 1:2000) was added, 100 μL per well, at room temperature for 30 min.

[1] = Bioavailability test in vivo in mice (pharmacokinetics, iv and intragastric); parameters: species or system ICR mice; conditions: for Cmax / MRT / Tmax / clearance / half-life / Vd / bioavailability: ICR, mouse, plasma; for bioavailability: po 10 mg/kg vs iv 3 mg/kg, read-out: F (absolute bioavailability)
Method: 404.6 μL of DMSO was added to the compound powder of the present disclosure until the compound was completely dissolved, and 50 mg/mL mother liquor was prepared in a clarified state.
The compound of the present disclosure: 24 μL of mother liquor was accurately measured, diluted to 4 mL according to the ratio of 0.9% normal saline:PEG400=8:2, the preparation concentration was 0.3 mg/mL, the solution was in a clarified state, and it was used as intravenous administration solution. In addition, 80 μL mother liquor was accurately measured, and 0.5% CMC-Na was added to 8 mL to grind it into a uniform suspension with a concentration of 0.5 mg/mL, which was used as intragastric administration solution.
Intravenous group: 24 ICR mice, 20±2 g, were given the intravenous administration solution of the compound of the present disclosure by intravenous injection, with the volume of 10 mL/kg, with the dose of 3 mg/kg, the blood was taken from the fundus venous plexus of mice, 2, 5, 15, 30, 60, 90, 120, 240, 360, 480, 600 and 1440 minutes before and after administration.
Intragastric group: 24 ICR mice, 20±2 g, were given the intragastric administration solution of the compound of the present disclosure by intragastric injection, with the volume of 20 mL/kg, with the dose of 10 mg/kg, the blood was taken from the fundus venous plexus of mice, 5, 15, 30, 60, 90, 120, 240, 360, 480, 600 and 1440 minutes before and after administration.
Blood sample was centrifuged at 8000 rpm for 5 min, and the plasma was stored in a centrifuge tube at −20° C. for later use.
300 μL of acetonitrile containing internal standard (Propranolol, 25 ng/mL) was added to 50 μL of plasma samples to precipitate protein, vortexed for 10 min, 6000 g, 4° C., centrifuged for 10 min; the supernatant before intravenous injection for 1 hour was taken, diluted 10 times with acetonitrile containing internal standard, the rest supernatant was kept undiluted, centrifuged for 10 min again at 6000 g, 4° C., and the supernatant was taken and then injected into a 96-well plate.
Dose; peak concentration: Cmax; peak time: Tmax; area under the drug-time curve from AUClast 0 to time t; half-life: T1/2; mean retention time: MRT; clearance: Cl; apparent distribution volume: Vz; steady-state distributed volume: Vss; absolute bioavailability: F.
The pharmacokinetic parameters of the compound in mice after intravenous injection or intragastric administration were shown in Table 4 and Table 5 below.

[2] = iv, 3 mg/kg, iv, 3 mg/kg, read-out: Vss
[3] = iv, 3 mg/kg, iv, 3 mg/kg, read-out: Vz

Structure (SMILES): C=CCn1c(=O)c2cnc(Nc3ccc(C4CCC(C(=O)OCC)CC4)cc3)nc2n1-c1cccc(C2(O)COC2)n1 (stereo not shown) [Compound I-39]
- IC50 (WEE1 kinase): 2.08 nM

Structure (SMILES): C=CCn1c(=O)c2cnc(Nc3ccc(C4CCC(C(=O)NC5CC5)CC4)cc3)nc2n1-c1cccc(C(C)(C)O)n1 (stereo not shown) [Compound I-17]
- IC50 (WEE1 kinase): 4.05 nM

Structure (SMILES): C=CCn1c(=O)c2cnc(Nc3ccc(C4CCC(C(=O)O)CC4)cc3)nc2n1-c1cccc(C2(O)COC2)n1 (stereo not shown) [Compound I-40]
- IC50 (WEE1 kinase): 4.58 nM

Structure (SMILES): C=CCn1c(=O)c2cnc(Nc3ccc(C4CCC(C#N)CC4)cc3)nc2n1-c1cccc(C(C)(C)O)n1 (stereo not shown) [Compound I-23]
- IC50 (WEE1 kinase): 0.71 nM

Structure (SMILES): C=CCn1c(=O)c2cnc(Nc3ccc(C4CCC(N5CCCC5)CC4)cc3)nc2n1-c1cccc(C(C)(C)O)n1 (single isomer, unassigned) [Compound I-3-1]
- IC50 (WEE1 kinase): 0.35 nM

Structure (SMILES): C=CCn1c(=O)c2cnc(Nc3ccc(C4CCC(C(=O)N(C)C)CC4)cc3)nc2n1-c1cccc(C(C)(C)O)n1 (stereo not shown) [Compound I-6]
- IC50 (WEE1 kinase): 6.76 nM

Structure (SMILES): C=CCn1c(=O)c2cnc(Nc3ccc(C4CCC(N5CCC5)CC4)cc3)nc2n1-c1cccc(C(C)(C)O)n1 (stereo not shown) [Compound I-8]
- IC50 (WEE1 kinase): 1.52 nM
- Cmax ([1]; iv, 3 mg/kg): 644 ± 132 ng/mL
- MRT ([1]; iv, 3 mg/kg): 1.11 ± 0.08 h
- Tmax ([1]; iv, 3 mg/kg): 1.8 min
- clearance ([1]; iv, 3 mg/kg): 155 mL/min/kg
- half-life ([1]; iv, 3 mg/kg): 73.2 ± 6 min
- Vd [1, 2]: 10.3 ± 0.86 L/kg
- Vd [1, 3]: 16.3 ± 2.48 L/kg
- bioavailability [1]: 60.3%
- Cmax ([1]; po (intragastric), 10 mg/kg): 58.1 ± 7.09 ng/mL
- MRT ([1]; po (intragastric), 10 mg/kg): 3.47 ± 1.22 h
- Tmax ([1]; po (intragastric), 10 mg/kg): 100 ± 17.4 min
- half-life ([1]; po (intragastric), 10 mg/kg): 94.2 ± 23.4 min
- AUClast ([1]; iv, 3 mg/kg): 317.5 ± 34.41 (h) (ng/mL)
- AUClast ([1]; po (intragastric), 10 mg/kg): 637.9 ± 302.3 (h) (ng/mL)

Structure (SMILES): C=CCn1c(=O)c2cnc(Nc3ccc(C4CCC(N5CCOCC5)CC4)cc3)nc2n1-c1cccc(C(C)(C)O)n1 (stereo not shown) [Compound I-2]
- IC50 (WEE1 kinase): 2.57 nM

Structure (SMILES): C=CCn1c(=O)c2cnc(Nc3ccc4c(c3)CCC(N(C)C)C4)nc2n1-c1cccc(C(C)(C)O)n1 (stereo not shown) [Control 2, reference compound]
- IC50 (WEE1 kinase): 1.98 nM
- Cmax ([1]; iv, 3 mg/kg): 646 ± 76.8 ng/mL
- MRT ([1]; iv, 3 mg/kg): 0.86 ± 0.16 h
- Tmax ([1]; iv, 3 mg/kg): 1.8 min
- clearance ([1]; iv, 3 mg/kg): 188 mL/min/kg
- half-life ([1]; iv, 3 mg/kg): 82.2 ± 19.8 min
- Vd [1, 2]: 9.69 ± 0.96 L/kg
- Vd [1, 3]: 22.2 ± 3.29 L/kg
- bioavailability [1]: 9.19%
- Cmax ([1]; po (intragastric), 10 mg/kg): 27.8 ± 4.76 ng/mL
- MRT ([1]; po (intragastric), 10 mg/kg): 3.78 ± 1.56 h
- Tmax ([1]; po (intragastric), 10 mg/kg): 100 ± 121 min
- half-life ([1]; po (intragastric), 10 mg/kg): 151 ± 111 min
- AUClast ([1]; iv, 3 mg/kg): 261.52 ± 26.93 (h) (ng/mL)
- AUClast ([1]; po (intragastric), 10 mg/kg): 80.15 ± 9.62 (h) (ng/mL)

Structure (SMILES): C=CCn1c(=O)c2cnc(Nc3ccc(C4CCC(N(C)C)CC4)cc3)nc2n1-c1cccc(C2(O)COC2)n1 (single isomer, unassigned) [Compound I-15-2]
- IC50 (WEE1 kinase): 1.68 nM

Structure (SMILES): C=CCn1c(=O)c2cnc(Nc3ccc(C4CCC(NS(C)(=O)=O)CC4)cc3)nc2n1-c1cccc(C(C)(C)O)n1 (stereo not shown) [Compound I-19, N-(4-(4-((2-allyl-1-(6-(2-hydroxypropan-2-yl)pyridin-2-yl)-3-oxo-2,3-dihydro-1H-pyrazolo[3,4-d]pyrimidin-6-yl)amino)phenyl)cyclohexyl)methanesulfonamide]
- IC50 (WEE1 kinase): 3.89 nM

Structure (SMILES): C=CCn1c(=O)c2cnc(Nc3ccc(C4CCC(C(=O)N5CCC5)CC4)cc3)nc2n1-c1cccc(C(C)(C)O)n1 (stereo not shown) [Compound I-7]
- IC50 (WEE1 kinase): 6.53 nM

Structure (SMILES): C=CCn1c(=O)c2cnc(Nc3ccc(C4CCC(N(C)C)CC4)cc3)nc2n1-c1cccc(C(C)(C)O)n1 (single isomer, unassigned) [Compound I-1-1]
- IC50 (WEE1 kinase): 1.9 nM
- Cmax ([1]; iv, 3 mg/kg): 701 ± 142 ng/mL
- MRT ([1]; iv, 3 mg/kg): 1.75 ± 0.46 h
- Tmax ([1]; iv, 3 mg/kg): 1.8 min
- clearance ([1]; iv, 3 mg/kg): 129 mL/min/kg
- half-life ([1]; iv, 3 mg/kg): 259 ± 90.6 min
- Vd [1, 2]: 13.6 ± 3.95 L/kg
- Vd [1, 3]: 48.5 ± 18.4 L/kg
- bioavailability [1]: 42.6%
- Cmax ([1]; po (intragastric), 10 mg/kg): 245 ± 220 ng/mL
- MRT ([1]; po (intragastric), 10 mg/kg): 4.33 ± 9.02 h
- Tmax ([1]; po (intragastric), 10 mg/kg): 150 ± 79.2 min
- half-life ([1]; po (intragastric), 10 mg/kg): 186 ± 541 min
- AUClast ([1]; iv, 3 mg/kg): 372.5 ± 24.38 (h) (ng/mL)
- AUClast ([1]; po (intragastric), 10 mg/kg): 528.6 ± 331.1 (h) (ng/mL)

Structure (SMILES): C=CCn1c(=O)c2cnc(Nc3ccc(C4CCC(NC(=N)N)CC4)cc3)nc2n1-c1cccc(C(C)(C)O)n1 (stereo not shown) [Compound I-20]
- IC50 (WEE1 kinase): 3.45 nM

Structure (SMILES): C=CCn1c(=O)c2cnc(Nc3ccc(C4CCC(N(C)C(=O)C5CC5)CC4)cc3)nc2n1-c1cccc(C2(O)COC2)n1 (stereo not shown) [Compound I-34]
- IC50 (WEE1 kinase): 3.3 nM

Structure (SMILES): C=CCn1c(=O)c2cnc(Nc3ccc(C4CC(N(C)C)C4)cc3)nc2n1-c1cccc(C(C)(C)O)n1 (stereo not shown) [Compound I-31, 2-allyl-6-((4-(3-(dimethylamino)cyclobutyl)phenyl)amino)-1-(6-(2-hydroxypropan-2-yl)pyridin-2-yl)-1,2-dihydro-3H-pyrazolo[3,4-d]pyrimidin-3-one]
- IC50 (WEE1 kinase): 2.05 nM

Structure (SMILES): C=CCn1c(=O)c2cnc(Nc3ccc(C4CCC(N(C)C)CC4)cc3)nc2n1-c1cccc(C2(O)COC2)n1 (single isomer, unassigned) [Compound I-15-1]
- IC50 (WEE1 kinase): 1.52 nM

Structure (SMILES): C=CCn1c(=O)c2cnc(Nc3ccc(C4CCC(NC)CC4)cc3)nc2n1-c1cccc(C2(O)COC2)n1 (stereo not shown) [Compound I-33]
- IC50 (WEE1 kinase): 4.22 nM

Structure (SMILES): C=CCn1c(=O)c2cnc(Nc3ccc(C4CCC(N5CCCC5)CC4)cc3)nc2n1-c1cccc(C(C)(C)O)n1 (single isomer, unassigned) [Compound I-3-2]
- IC50 (WEE1 kinase): 0.66 nM
